≈ marks a conversion by molar mass, not a printed value.
Columns and labels:
Type in all cases: functional
[1] = tested on: Stenotrophomonas maltophilia; experiment: Antibacterial activity against Stenotrophomonas maltophilia ATCC17808 incubated for 16 to 20 hrs by broth microdilution method; settings: time 16-20 hrs
Escherichia coli [2] = experiment: Antibacterial activity against Escherichia coli ATCC25922 under 10^7 CFU/ml of bacterial inoculum culture by absorbance based assay
Escherichia coli [3] = experiment: Antibacterial activity against Escherichia coli ATCC25922 incubated for 16 to 20 hrs by broth microdilution method; settings: time 16-20 hrs
Escherichia coli [4] = experiment: Antibacterial activity against Escherichia coli ATCC25922 under 10^4 CFU/ml of bacterial inoculum culture by absorbance based assay
Escherichia coli [5] = experiment: Antibacterial activity against Escherichia coli ATCC25922 under 10^5 CFU/ml of bacterial inoculum culture by absorbance based assay
Staphylococcus aureus [6] = experiment: Induction of resistance development in Staphylococcus aureus ATCC25923 treated daily with continuous passaging measured after 16 passages by absorbance based assay; settings: ATCC25923, 384 h, time 16 day
Staphylococcus aureus [7] = experiment: Induction of resistance development in Staphylococcus aureus ATCC25923 treated daily with continuous passaging measured after 13 passages by absorbance based assay; settings: ATCC25923, 312 h, time 13 day
Escherichia coli [8] = experiment: Antibacterial activity against Escherichia coli ATCC25922 under 10^6 CFU/ml of bacterial inoculum culture by absorbance based assay

CC(=O)NC[C@H]1CN(c2ccc(N3CCOCC3)c(F)c2)C(=O)O1 [LINEZOLID]
MIC [1]: > 32 µg/mL | MIC (Escherichia coli [2]): < 0.063 µg/mL | MIC (Escherichia coli [3]): > 32 µg/mL | MIC (Escherichia coli [4]): < 0.063 µg/mL | MIC (Escherichia coli [5]): < 0.063 µg/mL | MIC (Staphylococcus aureus [6]): 16 µg/mL (≈ 47.4 µM) | MIC (Staphylococcus aureus [7]): 8 µg/mL (≈ 23.7 µM) | MIC (Escherichia coli [8]): < 0.063 µg/mL

Reference: ChEMBL document CHEMBL6074711, “Design, Synthesis, and Activity Evaluation of C-23-Modified 5-O-Mycaminosyltylonolide Derivatives” (ACS Med Chem Lett, 2024)
